pIC50: −log10 of the molar value.
Legend:
IDH1 R132H = IDH1 R132H (Homo sapiens, UniProt O75874, R132H); test: Assay for IDH1 R132H inhibitors (NADPH/aKG, resazurin detection); type: biochemical; details: enzyme assay of Example 12; read-out: IDH1R132H IC50
Procedure, shortened: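 Read-out is resorufin fluorescence (Ex544/Em590) 5 min after adding a 30 μM resazurin detection mix. Before that, mutant enzyme (0.2 μg/ml in its mix) ran 50 min at room temperature with compound, 8 uM NADPH and 2 mM aKG (mix levels) in Tris pH 7.5 with NaCl, MgCl2, BSA.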

U87MG cells = test: Cellular assay for IDH1m inhibitors: inhibition of 2-HG production (LC-MS, 48 hours) in U87MG cells; type: cell-based; details: Homo sapiens, U-87 MG, inhibition of 2-HG production, U87R132H cells; read-out: U87R132H IC50
Procedure, shortened: (§1)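 Cells were seeded at 5000/well in DMEM with 10% FBS, incubated overnight, then treated with compound (0.2% DMSO final) for 48 h at 37° C. Medium 2-HG was quantified by LC-MS. IC50 is the concentration reducing 2-HG by 50% versus DMSO control, and CellTiter-Glo viability was read at 72 h.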

HT1080 cells = test: Cellular assay for IDH1m inhibitors: inhibition of 2-HG production (LC-MS, 48 hours) in HT1080 cells; type: cell-based; details: Homo sapiens, HT-1080; inhibition of 2-HG production, HT1080 cells; read-out: HT1080 IC50
Procedure, shortened: as §1

IDH1 R132H, sequence (O75874 whole entry R132H): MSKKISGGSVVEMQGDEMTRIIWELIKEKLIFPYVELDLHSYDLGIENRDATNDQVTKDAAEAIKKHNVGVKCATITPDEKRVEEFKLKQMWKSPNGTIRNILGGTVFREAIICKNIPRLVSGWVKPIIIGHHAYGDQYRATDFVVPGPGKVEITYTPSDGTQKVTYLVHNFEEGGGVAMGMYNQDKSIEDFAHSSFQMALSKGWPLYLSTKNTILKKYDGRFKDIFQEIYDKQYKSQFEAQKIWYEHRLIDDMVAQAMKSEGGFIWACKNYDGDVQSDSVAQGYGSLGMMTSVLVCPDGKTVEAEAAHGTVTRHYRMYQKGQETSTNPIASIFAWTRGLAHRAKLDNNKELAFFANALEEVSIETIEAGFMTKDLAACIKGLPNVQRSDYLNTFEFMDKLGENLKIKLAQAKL

Row | Compound | pIC50 (IDH1 R132H) | pIC50 (U87MG cells) | pIC50 (HT1080 cells)
1 | C=Cc1cc(-c2c(C3CC3)nc(N3CCN(C(=O)CCc4ccco4)[C@H](C4CC4)C3)c(C#N)c2C)ccn1 [Compound 796, (R)-2-cyclopropyl-6-(3-cyclopropyl-4-(3-(furan-2-yl)propanoyl)piperazin-1-yl)-4-methyl-2′-vinyl-3,4′-bipyridine-5-carbonitrile] | > 6.30 | > 6.30 | > 6.30
2 | C=Cc1cc(Nc2cc(C#N)c(N3CCN(C(=O)CCOC)[C@H](C)C3)nc2C2CC2)c2cccnc2n1 [Compound 705, (R)-6-cyclopropyl-2-(4-(3-methoxypropanoyl)-3-methylpiperazin-1-yl)-5-(2-vinyl-1,8-naphthyridin-4-ylamino)nicotinonitrile] | > 6.30 | > 6.30 | > 6.30
3 | C=Cc1cc(-c2cc(C#N)c(N3CCN(C(=O)CC4CCO4)[C@H](C)C3)nc2C2CC2)ccn1 (stereo partly drawn) [Compound 649, 2-cyclopropyl-6-((3R)-3-methyl-4-(2-(oxetan-2-yl)acetyl)piperazin-1-yl)-2′-vinyl-[3,4′-bipyridine]-5-carbonitrile] | > 6.30 | > 6.30 | > 6.30
4 | C=Cc1cc(-c2c(C3CC3)nc(N3CCN(C(=O)CCO)[C@H](C4CC4)C3)c(C#N)c2C)cnn1 [Compound 776, (R)-6-cyclopropyl-2-(3-cyclopropyl-4-(3-hydroxypropanoyl)piperazin-1-yl)-4-methyl-5-(6-vinylpyridazin-4-yl)nicotinonitrile] | > 6.30 | > 6.30 | > 6.30
5 | COCCC(=O)N1CCN(c2nc(C3CC3)c(-c3ccc4oc(=O)[nH]c4c3)cc2C#N)C[C@H]1C [Compound 473, (R)-6-cyclopropyl-2-[4-(3-methoxy-propionyl)-3-methyl-piperazin-1-yl]-5-(2-oxo-2,3-dihydro-benzooxazol-5-yl)-nicotinonitrile] | > 6.30 | 6.00 to 6.30 | 5.00 to 6.00
6 | C=Cc1nccc2ccc(-c3cc(C#N)c(N4CCN(C(=O)C5CC5)[C@H](C5CC5)C4)nc3C3CC3)cc12 [Compound 710, (R)-2-(4-(cyclopropanecarbonyl)-3-cyclopropylpiperazin-1-yl)-6-cyclopropyl-5-(1-vinylisoquinolin-7-yl)nicotinonitrile] | > 6.30 | > 6.30 | > 6.30
7 | C=Cc1ccnc(Nc2c(C3CC3)nc(N3CCN(C(=O)CCO)[C@H](C4CC4)C3)c(C#N)c2C)c1 [Compound 725, (R)-6-cyclopropyl-2-(3-cyclopropyl-4-(3-hydroxypropanoyl)piperazin-1-yl)-4-methyl-5-((4-vinylpyridin-2-yl)amino)nicotinonitrile] | > 6.30 | > 6.30 | > 6.30
8 | C#CC(=O)N1CC=C(c2cc(C#N)c(N3CCN(C(=O)C4CC4)[C@H](C)C3)nc2C2CC2)C1 [Compound 610, (R)-2-(4-(cyclopropanecarbonyl)-3-methylpiperazin-1-yl)-6-cyclopropyl-5-(1-propioloyl-2,5-dihydro-1H-pyrrol-3-yl)nicotinonitrile] | > 6.30 | > 6.30 | > 6.30
9 | C=Cc1cc(-c2c(C3CC3)nc(N3CCN(C(=O)CCOC)[C@H](C)C3)c(C#N)c2C)ncn1 [Compound 627, (R)-6-cyclopropyl-2-(4-(3-methoxypropanoyl)-3-methylpiperazin-1-yl)-4-methyl-5-(6-vinylpyrimidin-4-yl)nicotinonitrile] | > 6.30 | > 6.30 | > 6.30
10 | C=Cc1cc(Nc2cc(C#N)c(N3CCN(C(=O)CCO)[C@H](C)C3)nc2C2CC2)c2ccncc2n1 [Compound 698, (R)-6-cyclopropyl-2-(4-(3-hydroxypropanoyl)-3-methylpiperazin-1-yl)-5-((2-vinyl-1,7-naphthyridin-4-yl)amino)nicotinonitrile] | > 6.30 | > 6.30 | > 6.30

The next lines start with the values.

Row | pIC50 (IDH1 R132H) | pIC50 (U87MG cells) | pIC50 (HT1080 cells) | Compound
11 | > 6.30 | 5.00 to 6.00 | 5.00 to 6.00 | CCS(=O)(=O)Nc1cccc(-c2cc(C#N)c(N3CCN(C(=O)CCOC)[C@H](C)C3)nc2C2CC2)c1 [Compound 448, (R)—N-(3-(5-cyano-2-cyclopropyl-6-(4-(3-methoxypropanoyl)-3-methylpiperazin-1-yl)pyridin-3-yl)phenyl)ethanesulfonamide]
12 | > 6.30 | 5.00 to 6.00 | 5.00 to 6.00 | COCCC(=O)N1CCN(c2nc(C3CC3)c(Nc3cc(C#N)ccn3)cc2C#N)C[C@H]1C1CC1 [Compound 792, (R)-5-(4-cyanopyridin-2-ylamino)-6-cyclopropyl-2-(3-cyclopropyl-4-(3-methoxypropanoyl)piperazin-1-yl)nicotinonitrile]
13 | > 6.30 | 6.00 to 6.30 | 6.00 to 6.30 | N#Cc1cc(-c2cccc3cnccc23)c(C2CC2)nc1N1CCN(C(=O)C2CC2)[C@H](C2CC2)C1 [Compound 391, (R)-2-(4-(cyclopropanecarbonyl)-3-cyclopropylpiperazin-1-yl)-6-cyclopropyl-5-(isoquinolin-5-yl)nicotinonitrile]
14 | > 6.30 | > 6.30 | > 6.30 | C=Cc1cnc2c(-c3c(C4CC4)nc(N4CCN(C(=O)CCOC)[C@H](C(C)C)C4)c(C#N)c3C)cccc2n1 [Compound 765, 6-cyclopropyl-2-((R)-3-isopropyl-4-(3-methoxypropanoyl)piperazin-1-yl)-4-methyl-5-(2-vinylquinoxalin-5-yl)nicotinonitrile]
15 | > 6.30 | > 6.30 | > 6.30 | C=Cc1nc(-c2cc(C#N)c(N3CCN(C(=O)CCO)[C@H](C4CC4)C3)nc2C2CC2)c2ccccc2n1 [Compound 670, (R)-6-cyclopropyl-2-(3-cyclopropyl-4-(3-hydroxypropanoyl)piperazin-1-yl)-5-(2-vinylquinazolin-4-yl)nicotinonitrile]
16 | > 6.30 | > 6.30 | > 6.30 | C=Cc1cc(-c2c(C3CC3)nc(N3CCN(C(=O)CC4CCC(=O)O4)[C@H](C4CC4)C3)c(C#N)c2C)ccn1 (stereo partly drawn) [Compound 806, 2-cyclopropyl-6-((3R)-3-cyclopropyl-4-(2-(5-oxotetrahydrofuran-2-yl)acetyl)piperazin-1-yl)-4-methyl-2′-vinyl-[3,4′-bipyridine]-5-carbonitrile]
17 | > 6.30 | > 6.30 | > 6.30 | C=Cc1cc(-c2cc(C#N)c(N3CCN(C(=O)CC(C)O)[C@H](C4CC4)C3)nc2C2CC2)ccn1 (stereo partly drawn) [Compound 568, 2-cyclopropyl-6-((3R)-3-cyclopropyl-4-(3-hydroxybutanoyl)piperazin-1-yl)-2′-vinyl-3,4′-bipyridine-5-carbonitrile]
18 | > 6.30 | > 6.30 | 6.00 to 6.30 | C=Cc1ccnc(Oc2cc(C#N)c(N3CCN(C(=O)CCOC)[C@H](C4CC4)C3)nc2C2CC2)c1 [Compound 733]
19 | > 6.30 | > 6.30 | > 6.30 | C=Cc1cc(-c2cc(C#N)c(N3CCN(C(=O)C4CC4)[C@H](C4CC4)C3)nc2C2CC2)cnn1 [Compound 613, (R)-2-(4-(cyclopropanecarbonyl)-3-cyclopropylpiperazin-1-yl)-6-cyclopropyl-5-(6-vinylpyridazin-4-yl)nicotinonitrile]
20 | > 6.30 | 6.00 to 6.30 | > 6.30 | COCCC(=O)N1CCN(c2nc(C3CC3)c(-c3ccnc4ccccc34)cc2C#N)C[C@H]1C [Compound 315, (R)-6-cyclopropyl-2-(4-(3-methoxypropanoyl)-3-methylpiperazin-1-yl)-5-(quinolin-4-yl)nicotinonitrile]

Source: patent US9856279B2 (AGIOS PHARMACEUTICALS, INC, priority 2011, dated 2018)
